pIC50: −log10 of the molar value.
How the values were obtained:
[1] = biological target: Sodium channel alpha subunits; brain (Types I, II, III) (Rattus norvegicus, UniProt P04775+P04774+P08104); experiment: Concentration required to inhibit [3H]BTX binding to Sodium channel of rat brain
SH-SY5Y = experiment: Cytoprotection of SH-SY5Y cells against veratridine-induced cytotoxicity; type: functional, cell-based; conditions: Homo sapiens

Structure (SMILES)	IC50 [1] [µM]	pIC50 (SH-SY5Y)
CCCCCC(CCCCC)c1nc(-c2ccc(F)cc2)c[nH]1	0.025	6.11
CCCCCCc1nc(-c2ccc(-c3ccccc3)cc2)c[nH]1	0.016	6.35
CCCC(CCC)c1nc(-c2ccc(-c3ccc(Br)cc3)cc2)c[nH]1	0.322	
CCCC(CCC)c1nc(-c2ccc(-c3ccccc3)cc2)c[nH]1	0.1	
CCCC(CCC)c1nc(-c2ccc(F)cc2)c[nH]1	0.518	
c1ccc(-c2ccc(-c3c[nH]c(CCC4CCCCC4)n3)cc2)cc1	0.026	6.12
CCCCCC(CCCCC)c1nc(-c2ccccc2)c[nH]1	0.086	
CCCC(CCC)c1nc(-c2ccc(C(C)(C)C)cc2)c[nH]1	0.03	6.37
c1ccc(-c2c[nH]c([C@H]3Cc4c([nH]c5ccccc45)[C@@H](c4ccccc4)N3)n2)cc1	1.46	
Cc1nc(-c2ccc(-c3ccccc3)cc2)c[nH]1	1.46	
c1ccc(-c2ccc(-c3c[nH]c(CCCC4CCCCC4)n3)cc2)cc1	0.019	6.00
CCCCCCc1nc(-c2ccc(CC(C)C)cc2)c[nH]1	0.028	6.42
CCCCCC(CCCCC)c1nc(-c2ccc(-c3ccccc3)cc2)c[nH]1	0.008	6.09
c1ccc(-c2ccc(-c3c[nH]c(CC4CCCCC4)n3)cc2)cc1	0.07	
Fc1ccc(-c2c[nH]c(CC3CCCCC3)n2)cc1	0.146	
NC(=O)N1c2ccccc2C=Cc2ccccc21 [CARBAMAZEPINE]	167	
Nc1nnc(-c2cccc(Cl)c2Cl)c(N)n1 [LAMOTRIGINE]	31	
CCN(CC)CC(=O)Nc1c(C)cccc1C [LIDOCAINE]	56	
